Experimental data: publication PMC10552397 (Cell Communication and Signaling : CCS, 2023)

Legend:
JUNB = experiment: TPP-TR/RTSA, JUNB; type: binding, Homo sapiens; details: 100 nM vs DMSO, 6 h, HeLa wt
Description: TPP was performed essentially as described, but with major modifications to the TMT labeling sets and statistical data analysis for TPP-TR.
Adherent cells were washed in the dish once with DPBS and harvested by Trypsin–EDTA (0.25%, Thermo Fisher Scientific, Waltham, MA, USA, #25,200,056) treatment. […]
(§1) After temperature treatment, samples were supplemented with lysis buffer (final concentrations: 0.36 U/µL benzonase, 1.5 mM MgCl2, 1 mM Na3VO4, 10 mM NaF, 2.5 mM Na4P2O7, 0.8% w/v NP-40) for 1 h on ice. […] The total protein concentration of the resulting cell extracts containing the fraction of soluble, non-denatured proteins was determined (Pierce 660 nm Protein Assay, BSA as standard). […] The two (37 °C or 50 °C) x ten (concentrations) x three (replicates) = 60 TPP-CCR samples and two (treatment and control) x ten (temperatures) x three (replicates) = 60 TPP-TR samples were analyzed by LC–MS/MS. GRASP55 was additionally quantified from the TPP-TR samples by immunoblotting as described in the respective section.
For TPP-CCR, SP3 was performed as described with slight modifications to the original protocol using on average 5 µg total protein per sample and resulting in theoretically 5 µg peptides in 22 µL 50 mM triethylammonium bicarbonate per sample. […] This volume was calculated such that the lowest two temperature samples (36.5 °C and 41.2 °C) contained 10 µg total protein on average. […]

HeLa wt cells = experiment: Immunofluorescence of LC3 and LAMP1; type: cell-based; details: 2 h; prodigiosin 100 nM, BafA1 10 nM
Description: For immunofluorescence microscopy, HeLa cells were seeded on glass coverslips in 24-well plates. After treatment, cells were fixed in 4% paraformaldehyde for 15 min on ice, quenched with 50 mM NH4Cl for 15 min and permeabilized with 50 µg/mL digitonin (Sigma-Aldrich, St. Louis, MO, USA, #D141) for 5 min. Fixed samples were blocked with 3% BSA (Roth, Karlsruhe, Germany, #8076) for 30 min or overnight and incubated with primary antibodies diluted in 3% BSA for 2 h. Samples were then washed three times with DPBS, incubated with the appropriate secondary antibodies diluted in 3% BSA for 30 min and washed three times with DPBS. Afterwards, cells were embedded in ProLong Glass Antifade Mountant (Thermo Fisher Scientific, Waltham, MA, USA, #P36980) containing 1 µg/mL DAPI (Roth, Karlsruhe, Germany, #6335.1). Images were recorded with an Axio Observer 7 fluorescence microscope (Carl Zeiss Microscopy, Oberkochen, Germany) using a 40x/1,4 Oil DIC M27 Plan-Apochromat objective (Carl Zeiss Microscopy, Oberkochen, Germany) and an ApoTome 2 (Carl Zeiss Microscopy, Oberkochen, Germany).

GRASP55 = GRASP55 (Homo sapiens, UniProt Q9H8Y8); experiment: CETSA (immunoblot quantification of non-denatured GRASP55); type: binding; design: endogenous in cells; host or cells: HeLa wt cells; details: 100 nM, 6 h, HeLa wt, vs DMSO
Description: Adherent cells were washed in the dish once with DPBS and harvested by Trypsin–EDTA (0.25%, Thermo Fisher Scientific, Waltham, MA, USA, #25,200,056) treatment. After addition of 35 mL DPBS, the cells were pelleted by centrifugation (300 rcf, 5 min, 4 °C), and washed twice by re-suspending and pelleting using 45 mL and 1 mL DPBS, respectively, to remove excess trypsin and for transfer into pre-weighed 2 mL Eppendorf tubes to determine the cell pellet wet weights as quality check after centrifugation (300 rcf, 5 min, 4 °C) and complete removal of the supernatant. […]
as §1, with “section. […]” for “section.”

## CCCCCC1=C/C(=C/c2[nH]c(-c3ccc[nH]3)cc2OC)N=C1C [Prodigiosin, prodigiosin]
JUNB
  Mean_dTm: 2.343
HeLa wt cells
  LC3-positive structures: increase
  co-localization of LC3- and LAMP1-positive structures: highly significant increase
GRASP55
  dif GRASP55 (CETSA), melting point difference: 4.5
